How the values were obtained:
Assay in all cases: Minimum Inhibitory Concentration (MIC) test / synergy testing
Assay type in all cases: cell-based
[1] = test system: Pseudomonas aeruginosa DSM# 939; conditions: single biocide, TSB medium pH 5, 30° C., 48 hours
Procedure: (§1) The synergism of the biocides combination of the present invention was determined using the Minimum Inhibitory (MIC) test method described by Kull, F. C., et. al in Applied Microbiology 9:538-541 (1961).
(§2) The Minimum Inhibitory Concentration Test (MIC) is designed to evaluate the lowest concentration of a biocide, biocide blend or biocide combination to prevent bacteria growing in a defined broth.
(§3) The MICs of the single biocides NaOPP and BDA as well as of combinations of these two actives (all in TSB) in 3 different ratios (1:1; 10:1, 100:1) were estimated against each of the 4 microorganisms Staphylococcus aureus (DSMZ#799), Pseudomonas aeruginosa (DSMZ#939) and Candida albicans (DSMZ#1386), Pseudomonas putida, respectively.
(§4) The synergy testing was carried out as follows: • 1. The test was executed with a Hamilton MLStarPlus robot using automated turbidity reading with BioTek Synergy H4 plate reader. • 2. Biocide systems were prepared in 2.2 ml deep well plates by transferring and diluting biocides from stock solutions to first rows of the plates. The concentrations of biocides in stock bottles were adjusted to be 20× more concentrated than the highest desired concentration. • 3. Then 15 subsequent serial dilutions with dilution factor 1.3 were performed resulting in 16 different concentrations for each system. • 4. In the next step serially diluted biocide systems were transferred to the media blocks containing 850 μl of TSB medium adjusted to pH 5. For each biocide system 100 μl was transferred to the media, resulting in 950 μl of final volume of media+biocides and 9.5 times dilution of the biocides from the biocide plate. At this point, the concentrations of all biocides in media were 1.053×final concentration. • 5. After preparation and mixing of the described systems, 4 aliquots of 190 μl were prepared in 96-well microtiter plates. • 6. Preparation of the microbe suspension:
(§5) • The culture was maintained as a glycerol stock at −80° C. in cryovials. A cryovial was thawed and then 100 μl spread on a TSA agar plate. After incubation for 1 day at 30° C. the bacteria were harvested with buffer at pH 7.3. A total viable count on TSA plate was carried out and bacterial suspension was diluted in buffer in order to deliver ˜2×10^7 CFU/ml.
(§6) • The cultures were maintained as glycerol stocks at −80° C. in cryovials, are thawed and then 100 μl spread on MEA (malt extract agar) petri dishes. • The yeast strain plates were incubated at 28° C. for 1-2 days then harvested with buffer pH 5.0. • Based on total viable count results, the inoculum was prepared. • 7. Each test sample (190 μl) was inoculated with the 10 μl of microbe suspension to provide a level of ˜1×10^6 CFU/ml of the bacteria species and ˜1×10^5 CFU/ml of the yeast species. • 8. The test samples were mixed and incubated at 30° C. for 2 days (48 hours) when tested against bacteria and 3 days (72 hours), respectively, when tested against yeast. • 9. Growth of the micro-organisms leads to turbidity after incubation, clarity indicates no growth. Reading of the results was carried out by measuring absorbance at 600 nm for each sample at the beginning of the test (tzero) and after incubation (tendpoint). tendpoint was chosen at 48 hours for bacteria and 72 hours for yeast. The difference in absorbance between tendpoint and tzero was used to assign a score (“1” if Δ>0.2, confirming growth, and “0” if Δ≤0.2, confirming no growth) from which the MIC values were derived.

Pseudomonas putida = conditions: single biocide, TSB medium pH 5, 30° C., 48 hours
Procedure: as §1, §2, §3, §4, §5, §6

[2] = test system: Staphylococcus aureus DSM# 799; conditions: single biocide, TSB medium pH 5, 30° C., 48 hours
Procedure: as §1, §2, §3, §4, §5, §6

[3] = test system: Candida albicans DSM# 1386; conditions: single biocide, TSB medium pH 5, 30° C., 72 hours
Procedure: as §1
The Minimum Inhibitory Concentration Test (MIC) is designed to evaluate the lowest concentration of a biocide, biocide blend or biocide combination to prevent bacteria growing in a defined broth. […]
The synergy testing was carried out as follows: • 1. The test was executed with a Hamilton MLStarPlus robot using automated turbidity reading with BioTek Synergy H4 plate reader. • 2. […]
• The cultures were maintained as glycerol stocks at −80° C. in cryovials, are thawed and then 100 μl spread on MEA (malt extract agar) petri dishes. • The yeast strain plates were incubated at 28° C. for 1-2 days then harvested with buffer pH 5.0. • Based on total viable count results, the inoculum was prepared. • 7. […] Reading of the results was carried out by measuring absorbance at 600 nm for each sample at the beginning of the test (tzero) and after incubation (tendpoint). tendpoint was chosen at 48 hours for bacteria and 72 hours for yeast. The difference in absorbance between tendpoint and tzero was used to assign a score (“1” if Δ>0.2, confirming growth, and “0” if Δ≤0.2, confirming no growth) from which the MIC values were derived.

SMILES | MIC ([1]; Pseudomonas aeruginosa, DSM939, read-out: MIC results for single biocides) [µg/mL] | MIC (Pseudomonas putida; Pseudomonas putida, read-out: MIC results for single biocides) [µg/mL] | MIC ([2]; Staphylococcus aureus, DSM799, read-out: MIC results for single biocides) [µg/mL] | MIC ([3]; Candida albicans, DSM1386, read-out: MIC results for single biocides) [µg/mL] | MIC results for single biocides [1] [ppm] | MIC results for single biocides (Pseudomonas putida) [ppm] | MIC results for single biocides [2] [ppm] | MIC results for single biocides [3] [ppm]
CCCCCCCCCCCCN(CCCN)CCCN [BDA, bis-(3-aminopropyl)dodecylamine] | 200 | 200 | 91 | ≥ 260 |  |  |  | 
[Na+].[O-]c1ccccc1-c1ccccc1 [NAOPP, sodium ortho-phenylphenate] |  |  |  |  | 167 | 283 | 129 | 167

Reference: patent publication US20190364890A1, “SYNERGISTIC COMBINATION OF ORTHO-PHENYLPHENOL AND BIS-(3-AMINOPROPYL)DODECYLAMINE” (Dow Global Technologies LLC, priority 2016, published 2019)
